The results in this text go back to patent publication US11279690B2, “Inhibitors of glutaminyl cyclase” (VIVORIAN THERAPEUTICS N.V, priority 2017, dated 2022).

One series concerns the target hQPCTL (Homo sapiens, UniProt Q9NXS2). The series is described as follows: Inhibitor assay, determination of Ki against the QC isoenzyme at pH 6. In kind it is biochemical. The note with it: read-out: Ki hQPCTL pH6. As to the method:
(§1) For inhibitor testing, the sample composition was the same as described above, except of the putative inhibitory compound added. For a rapid test of QC-inhibition, samples contained 4 mM of the respective inhibitor and a substrate concentration at 1 KM. For detailed investigations of the inhibition and determination of Ki-values, influence of the inhibitor on the auxiliary enzymes was investigated first. […] The inhibitory constant was evaluated by fitting the set of progress curves to the general equation for competitive inhibition using GraFit software. The inhibitor assay was performed at two different pH levels, pH 6.0 and pH 8.0: The respective pH value in the assay solution was adjusted using conventional methods.

Another series addresses hQC (Homo sapiens, UniProt Q16769). The series is described as follows: QC inhibitor assay, determination of Ki at pH 6.0. In kind it is biochemical. Particulars: read-out: Ki hQC pH6.0. The procedure:
All measurements were performed with a BioAssay Reader HTS-7000Plus for microplates (Perkin Elmer) at 30° C. QC activity was evaluated fluorometrically using H-Gln-βNA. The samples consisted of 0.2 mM fluorogenic substrate, 0.25 U pyroglutamyl aminopeptidase (Unizyme, Horsholm, Denmark) in 0.2 M Tris/HCl, pH 8.0 containing 20 mM EDTA and an appropriately diluted aliquot of QC in a final volume of […]. Excitation/emission wavelengths were 320/410 nm. The assay reactions were initiated by addition of glutaminyl cyclase. QC activity was determined from a standard curve of β-naphthylamine under assay conditions. One unit is defined as the amount of QC catalyzing the formation of 1 μmol pGlu-βNA from H-Gln-βNA per minute under the described conditions.
In a second fluorometric assay, QC was activity determined using H-Gln-AMC as substrate. Reactions were carried out at 30° C. utilizing the NOVOStar reader for microplates (BMG labtechnologies). The samples consisted of varying concentrations of the fluorogenic substrate, 0.1 U pyroglutamyl aminopeptidase (Qiagen) in 0.05 M Tris/HCl, pH 8.0 containing 5 mM EDTA and an appropriately diluted aliquot of QC in a final volume of 250 μl. Excitation/emission wavelengths were 380/460 nm. The assay reactions were initiated by addition of glutaminyl cyclase. QC activity was determined from a standard curve of 7-amino-4-methylcoumarin under assay conditions. The kinetic data were evaluated using GraFit software.
This novel assay was used to determine the kinetic parameters for most of the QC substrates. […] Samples consisted of the respective QC substrate, 0.3 mM NADH, 14 mM α-Ketoglutaric acid and 30 U/ml glutamate dehydrogenase in a final volume of 250 μl. Reactions were started by addition of QC and persued by monitoring of the decrease in absorbance at 340 nm for 8-15 min.
The initial velocities were evaluated and the enzymatic activity was determined from a standard curve of ammonia under assay conditions. All samples were measured at 30° C., using either the […]luor Plus or the Sunrise (both from TECAN) reader for microplates. Kinetic data was evaluated using GraFit software.
as §1

Series [1] can be described thus: Pharmacokinetic parameters in mice, plasma, brain and CSF after oral administration. Format: in vivo, mice (strain CD-1). The note with it: mice (CD-1), 30 mg/kg orally in 0.8% Methocel. The procedure: Three mice (strain CD-1) were administered orally 30 mg/kg of each test compound dissolved in 0.8% Methocel. Samples were taken at the time points 10 min, 0.5, 1, 2, 4 and 8 hr after test compound administration for plasma and brain collection.
The mice were anesthetized with Isoflurane. Approximate […] of each blood sample were collected via cardiac puncture for terminal bleeding into K2EDTA tubes. Blood samples were put on ice and centrifuged at 2000 g for 5 min to obtain plasma sample within 15 minutes. CSF collection: The animals were euthanized with pure CO2 inhalation. A mid line incision was made on the neck. The muscle under the skin was cut to expose the cisterna magna. The cisterna magna was penetrated with the sharp end of a capillary and CSF was collected via capillarity.
After CSF collection, a perfusion with 7x total mouse blood volume (approximate 15 ml) of ice-cold PBS (pH 7.4) was conducted via cardiac puncture before brain collection. A mid-line incision was made in the animal scalp. The brain was removed and rinsed with cold saline. Brain was placed into a screw-top tube and weighed. Brain samples were homogenized for 2 min with 3 volumes (v/w) of PBS (pH 7.4) and then analyzed with LC-MS/MS. The brain concentration was corrected with a dilution factor of 4 as following: Brain concentration=brain homogenate conc.×4, assuming 1 g wet brain tissue equals to 1 ml.
Plasma, brain and CSF samples were stored at approximately −80° C. until analysis.
For plasma samples: An aliquot of 20 μl sample was added with 200 μ IS (Diclofenac, 200 ng/mL) in ACN, the mixture was vortexed for 2 min and centrifuged at 12.000 rpm for 5 min. 1 μl supernatant was injected for LC-MS/MS analysis.
For diluted plasma samples: An aliquot of 4 μl sample was added with 16 μl blank plasma, mixed well, added with 200 μl IS (Diclofenac, 200 ng/ml) in ACN.
For Brain samples: Brain tissue was homogenized for 2 min with 3 volumes (v/w) of PBS. An aliquot of 20 μl sample was added with 200 μl IS (Diclofenac, 200 ng/ml) in ACN, the mixture was vortexed for 2 min and centrifuged at 12000 rpm for 5 min. 1 μl supernatant was injected for LC-MS/MS analysis.
For CSF samples: The CSF sample was added with corresponding 20 fold volume of IS (Diclofenac, 200 ng/ml) in ACN, the mixture was vortexed for 2 min. 3 μl supernatant was injected for LC-MS/MS analysis.

Each structure is given as a SMILES string.

Sequence of hQPCTL (Q9NXS2 whole entry): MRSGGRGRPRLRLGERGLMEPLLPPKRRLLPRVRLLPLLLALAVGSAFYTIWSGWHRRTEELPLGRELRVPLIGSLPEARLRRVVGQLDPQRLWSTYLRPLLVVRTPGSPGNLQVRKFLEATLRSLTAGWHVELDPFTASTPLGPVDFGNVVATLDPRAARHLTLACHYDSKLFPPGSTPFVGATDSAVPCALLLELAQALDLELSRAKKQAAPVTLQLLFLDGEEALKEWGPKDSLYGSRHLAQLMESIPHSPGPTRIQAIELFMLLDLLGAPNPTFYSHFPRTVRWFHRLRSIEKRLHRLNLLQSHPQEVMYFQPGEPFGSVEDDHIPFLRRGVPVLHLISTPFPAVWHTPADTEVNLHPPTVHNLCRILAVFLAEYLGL
Sequence of hQC (Q16769 29-361): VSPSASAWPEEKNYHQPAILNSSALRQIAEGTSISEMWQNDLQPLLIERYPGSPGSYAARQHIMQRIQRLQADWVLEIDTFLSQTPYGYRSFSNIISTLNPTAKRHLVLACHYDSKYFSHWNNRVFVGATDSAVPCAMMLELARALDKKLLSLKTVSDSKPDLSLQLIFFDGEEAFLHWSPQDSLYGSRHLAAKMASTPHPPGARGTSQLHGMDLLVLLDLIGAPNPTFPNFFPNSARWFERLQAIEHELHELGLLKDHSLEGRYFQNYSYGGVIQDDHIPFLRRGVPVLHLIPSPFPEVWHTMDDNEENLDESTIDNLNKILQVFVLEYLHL

For the molecule `O=C1CC(c2ccccc2)N1c1ccc2[nH]cnc2c1` (racemic) [Example 1, 1-(1H-benzo[d]imidazol-5-yl)-4-phenylazetidin-2-one], the Ki (usually a dissociation constant, usually derived from enzyme kinetics or from competition with a known ligand) on hQPCTL was 33.4 nM; on hQC, 170 nM.

With `COc1cc(F)c(C2CC(=O)N2c2ccc3nc[nH]c3c2)c(F)c1` (racemic) [Example 4, 1-(1H-benzo[d]imidazol-5-yl)-4-(2,6-difluoro-4-methoxyphenyl)azetidin-2-one], at hQPCTL, the Ki came to 2.5 nM. Besides, at hQC, the inhibition constant Ki is 8.6 nM. Further, in series [1], the blood-brain-barrier crossing behaviour entry was “good” and the “AUC-values in the brain” value was “good”.

Consider `O=C1C[C@H](c2ccccc2)N1c1ccc2nc[nH]c2c1` [Example 2, (R)-1-(1H-benzo[d]imidazol-6-yl)-4-phenylazetidin-2-one], for which the Ki amounted to 6.9 nM at hQPCTL and 20.8 nM at hQC.

As to `O=C1C[C@H](c2ccc(OCCC(F)F)cc2F)N1c1ccc2[nH]cnc2c1` [Example 5, (R)-4-(4-(3,3-difluoropropoxy)-2-fluorophenyl)-1-(1H-benzo[d]imidazol-5-yl)azetidin-2-one], the melting point (usually the temperature, or range, at which the solid turns liquid) was in the range of 150 to 155 °C. For the same molecule, the inhibition constant Ki at hQPCTL stood at 0.86 nM. The Ki on hQC is 3.3 nM. Besides, in series [1], the blood-brain-barrier crossing behaviour result was “good” and the “AUC-values in the brain” value was “good”.

Molecule `O=C1C[C@@H](c2ccc(OCCC(F)F)cc2F)N1c1ccc2[nH]cnc2c1` [Example 6, (S)-4-(4-(3,3-difluoropropoxy)-2-fluorophenyl)-1-(1H-benzo[d]imidazol-5-yl)azetidin-2-one] showed a melting point of 137 to 142 °C.

With `O=C1C[C@H](c2ccc(OCCC(F)F)c(F)c2F)N1c1ccc2[nH]cnc2c1` [Example 7, (R)-4-(4-(3,3-difluoropropoxy)-2,3-difluorophenyl)-1-(1H-benzo[d]imidazol-5-yl)azetidin-2-one], the melting point was 165 to 170 °C. Further, the Ki on hQPCTL turned out to be 1.1 nM. For the same molecule, at hQC, the Ki was determined as 2.4 nM. Moreover, in series [1], the blood-brain-barrier crossing behaviour entry is on record as “good” and the “AUC-values in the brain” value is listed as “good”.

As for `O=C1C[C@@H](c2ccc(OCCC(F)F)c(F)c2F)N1c1ccc2[nH]cnc2c1` [Example 8, (S)-4-(4-(3,3-difluoropropoxy)-2,3-difluorophenyl)-1-(1H-benzo[d]imidazol-5-yl)azetidin-2-one], the melting point is 148 to 153 °C.

`O=C1C[C@H](c2c(F)cc(OCCC(F)F)cc2F)N1c1ccc2[nH]cnc2c1` [Example 9, (R)-4-(4-(3,3-difluoropropoxy)-2,6-difluorophenyl)-1-(1H-benzo[d]imidazol-5-yl)azetidin-2-one]: in series [1], the blood-brain-barrier crossing behaviour result is listed as “good” and the “AUC-values in the brain” value is given as “good”.

`CC(F)(F)COc1ccc([C@H]2CC(=O)N2c2ccc3[nH]cnc3c2)c(F)c1` [Example 11, (R)-4-(4-(2,2-difluoropropoxy)-2-fluorophenyl)-1-(1H-benzo[d]imidazol-5-yl)azetidin-2-one] showed a melting point of 165 to 170 °C. Also, the Ki on hQPCTL was 1.3 nM. For the same molecule, the Ki on hQC was 3.8 nM. Further, in series [1], the blood-brain-barrier crossing behaviour result is recorded as “good” and the “AUC-values in the brain” value is recorded as “good”.

`CC(F)(F)COc1ccc([C@@H]2CC(=O)N2c2ccc3[nH]cnc3c2)c(F)c1` [Example 12, (S)-4-(4-(2,2-difluoropropoxy)-2-fluorophenyl)-1-(1H-benzo[d]imidazol-5-yl)azetidin-2-one] came in with a melting point of 203 to 208 °C.

In turn, `CC(F)(F)COc1ccc([C@H]2CC(=O)N2c2ccc3[nH]cnc3c2)c(F)c1F` [Example 13, (R)-4-(4-(2,2-difluoropropoxy)-2,3-difluorophenyl)-1-(1H-benzo[d]imidazol-5-yl)azetidin-2-one] came in with a melting point of 173 to 177 °C. Moreover, the Ki at hQPCTL turned out to be 2 nM. Also, at hQC, the Ki amounted to 2.3 nM. Also, in series [1], the blood-brain-barrier crossing behaviour entry is reported as “good” and the “AUC-values in the brain” value is listed as “good”.

Consider `CC(F)(F)COc1ccc([C@@H]2CC(=O)N2c2ccc3[nH]cnc3c2)c(F)c1F` [Example 14, (S)-4-(4-(2,2-difluoropropoxy)-2,3-difluorophenyl)-1-(1H-benzo[d]imidazol-5-yl)azetidin-2-one], for which the melting point lay within 170 to 174 °C.

Molecule `CC(F)(F)COc1cc(F)c([C@H]2CC(=O)N2c2ccc3[nH]cnc3c2)c(F)c1` [Example 15, (R)-4-(4-(2,2-difluoropropoxy)-2,6-difluorophenyl)-1-(1H-benzo[d]imidazol-5-yl)azetidin-2-one] displayed a melting point of 158 to 162 °C. On hQPCTL, the Ki came out at 0.3 nM. Moreover, the Ki on hQC stood at 3.6 nM. In series [1], the blood-brain-barrier crossing behaviour result was “good” and the “AUC-values in the brain” value is “good”.

Molecule `CC(F)(F)COc1cc(F)c([C@@H]2CC(=O)N2c2ccc3[nH]cnc3c2)c(F)c1` [Example 16, (S)-4-(4-(2,2-difluoropropoxy)-2,6-difluorophenyl)-1-(1H-benzo[d]imidazol-5-yl)azetidin-2-one] displayed a melting point of 163 to 166 °C.
